Results from the NIST ThermoML archive (doi:10.1021/je900276q).
Several values for one entry are separate records, joined by “and”; a condition that tells them apart may be missing. Identical values can stand only once.

Details: Crystal, Calculated from knudsen effusion weight loss

[Cl][Ga]([Cl])[Cl] [gallium chloride]
Details	vapor or sublimation pressure
289 K	0.004266 kPa
290.5 K	0.005754 kPa
292 K	0.006166 kPa
293 K	0.006761 kPa and 0.006918 kPa
293.5 K	0.007413 kPa
294 K	0.007943 kPa
295.5 K	0.00912 kPa
296 K	0.008913 kPa
297 K	0.01148 kPa and 0.01072 kPa and 0.01047 kPa
298 K	0.01175 kPa
298.5 K	0.01175 kPa
299 K	0.01318 kPa
299.5 K	0.01349 kPa
300.5 K	0.01413 kPa and 0.0138 kPa
301 K	0.0166 kPa
302 K	0.01698 kPa
303 K	0.01905 kPa and 0.0182 kPa
303.5 K	0.02089 kPa
304.5 K	0.02042 kPa
305 K	0.02344 kPa and 0.02089 kPa
306 K	0.02512 kPa and 0.02754 kPa
307 K	0.02884 kPa and 0.0263 kPa
308 K	0.0309 kPa and 0.02951 kPa and 0.02818 kPa

[F][Ga]([F])[F] [gallium fluoride (GaF3)]
Details	vapor or sublimation pressure
808 K	4.677e-05 kPa
810 K	3.981e-05 kPa
813 K	4.677e-05 kPa
816 K	4.677e-05 kPa
818 K	6.31e-05 kPa
820 K	5.495e-05 kPa
822 K	6.31e-05 kPa
827 K	9.55e-05 kPa and 7.943e-05 kPa
830 K	9.55e-05 kPa
835 K	0.0001096 kPa
836 K	0.0001413 kPa
837 K	0.0001096 kPa
839 K	0.0001259 kPa
842 K	0.0002239 kPa
843 K	0.0001413 kPa
844 K	0.000257 kPa
845 K	0.0001905 kPa and 0.0002818 kPa
846 K	0.000166 kPa
847 K	0.0001738 kPa and 0.000257 kPa
852 K	0.0002692 kPa
853 K	0.0002188 kPa and 0.0003715 kPa
854 K	0.0004074 kPa
855 K	0.0002344 kPa and 0.0004677 kPa
856 K	0.0002512 kPa
857 K	0.0003715 kPa
859 K	0.0006026 kPa
861 K	0.0003802 kPa
862 K	0.0003162 kPa
863 K	0.0005888 kPa and 0.0005495 kPa
864 K	0.0003311 kPa
866 K	0.0005495 kPa
867 K	0.0003802 kPa
869 K	0.0005248 kPa
870 K	0.0008913 kPa
871 K	0.0004365 kPa and 0.0008128 kPa
872 K	0.0004571 kPa and 0.0008128 kPa
874 K	0.0007413 kPa
876 K	0.000537 kPa
878 K	0.0007586 kPa
880 K	0.0006166 kPa and 0.001096 kPa
881 K	0.001349 kPa
882 K	0.0006457 kPa
884 K	0.0009772 kPa and 0.001259 kPa
885 K	0.0007943 kPa and 0.001175 kPa
890 K	0.0008511 kPa and 0.000871 kPa and 0.001585 kPa
893 K	0.001413 kPa and 0.002089 kPa
894 K	0.001202 kPa and 0.001862 kPa and 0.001622 kPa
895 K	0.001096 kPa
898 K	0.002138 kPa
900 K	0.001349 kPa
901 K	0.001862 kPa and 0.002042 kPa
902 K	0.002399 kPa
903 K	0.00166 kPa and 0.002884 kPa
904 K	0.001622 kPa
907 K	0.002818 kPa
909 K	0.002455 kPa and 0.001778 kPa
910 K	0.00389 kPa and 0.002818 kPa
911 K	0.002138 kPa
913 K	0.002188 kPa and 0.003467 kPa
916 K	0.002455 kPa and 0.003802 kPa
918 K	0.00309 kPa
919 K	0.00389 kPa
920 K	0.00537 kPa
921 K	0.002884 kPa
923 K	0.003236 kPa
924 K	0.005012 kPa
925 K	0.005248 kPa
928 K	0.007079 kPa
929 K	0.005495 kPa
934 K	0.007413 kPa
935 K	0.007244 kPa
938 K	0.00955 kPa
939 K	0.007413 kPa
942 K	0.00955 kPa
945 K	0.01023 kPa
946 K	0.009333 kPa
947 K	0.01288 kPa
948 K	0.01175 kPa
955 K	0.01445 kPa
956 K	0.01413 kPa
958 K	0.01698 kPa and 0.01318 kPa

[I][Ga]([I])[I] [gallium iodide]
Details	vapor or sublimation pressure
344.5 K	0.0001445 kPa
346 K	0.0001698 kPa and 0.0001445 kPa
347 K	0.000195 kPa
348 K	0.000195 kPa
348.5 K	0.0001445 kPa
349 K	0.000195 kPa
349.5 K	0.0002455 kPa and 0.0002951 kPa
350 K	0.000195 kPa
351.5 K	0.0003388 kPa
352 K	0.0002455 kPa
352.5 K	0.0003388 kPa
354 K	0.0004365 kPa and 0.0003388 kPa
355 K	0.0003388 kPa and 0.000389 kPa
356 K	0.0004365 kPa
357 K	0.0004365 kPa
357.5 K	0.0006761 kPa and 0.0004898 kPa
359.5 K	0.000537 kPa
361.5 K	0.0006761 kPa
362 K	0.000871 kPa
364 K	0.0009333 kPa and 0.0007762 kPa
365.5 K	0.0009772 kPa
367 K	0.001148 kPa
367.5 K	0.00123 kPa
368.5 K	0.001122 kPa and 0.00123 kPa
370 K	0.001413 kPa
372 K	0.001445 kPa and 0.00166 kPa
372.5 K	0.00166 kPa
373 K	0.001905 kPa and 0.001738 kPa
374.5 K	0.002042 kPa and 0.001995 kPa
375.5 K	0.002291 kPa
377 K	0.002399 kPa
377.5 K	0.002692 kPa
378 K	0.002951 kPa
379 K	0.002951 kPa
380 K	0.002951 kPa
381.5 K	0.003715 kPa
382 K	0.004266 kPa
383 K	0.00389 kPa
383.5 K	0.004169 kPa
384 K	0.004898 kPa
387.5 K	0.006607 kPa and 0.006026 kPa and 0.00631 kPa
389.5 K	0.007244 kPa
390.5 K	0.00871 kPa and 0.007244 kPa
391.5 K	0.00871 kPa
393.5 K	0.01096 kPa and 0.01 kPa
394 K	0.009772 kPa
397 K	0.0138 kPa
398 K	0.01349 kPa
400.5 K	0.01778 kPa
401 K	0.01698 kPa
